From US20060264422A1, “Use of taurolidine as enhancer of the complement system” (priority 2005, published 2006)

Experiments:
complement system = experiment: CH50 assay (hemolysis of sensitized sheep erythrocytes by human serum); assay type: biochemical
Protocol: Using the CH50 assay, it is possible to assess functionally the total activity of the complement system, especially the classic activation pathway. […] In accordance with the protocol, a dilution series (1:20-1:480) was prepared for each condition and washed sheep erythrocytes which had been preincubated with hemolysin reagent were then added. During subsequent incubation at 37° C. for exactly 1 hour the erythrocytes were lysed depending on the activity of the complement system. In each experiment, a negative control (no hemolysis), a sample with 50% hemolysis (CH50, by dilution with dist. water) and a sample with 100% hemolysis (CH100, by dilution with dist. water) were analyzed in each case. After a final centrifugation, in each case 1 ml of the supernatant of each sample was removed and the absorption at 541 nm was determined photometrically. The determined absorptions were finally plotted against the dilutions. The activity (or the ability to lyse) of the complement system under the respective conditions could be assessed by the shape of the curves (shift to the left=complement activation) and by determining the dilution at which 50% of the erythrocytes have been lysed.

C3a = experiment: ELISA of complement anaphylatoxin C3a in serum; assay type: biochemical, human
Protocol: (§1) Complement anaphylatoxins C5a and C3a and the lytic complex (MAC, C5b-9) in the serum of healthy volunteers were determined quantitatively using commercially available ELISA (“enzyme-linked immunosorbent assay”) test systems. As described above, initially serum samples having various concentrations of taurolidine (0.1-5%, in parallel with samples containing Ringer solution in corresponding dilution ratios=controls) were incubated for 30 minutes at 37° C. The samples were then diluted according to the protocol of the manufacturer and pipetted into the wells of the microtiter plate. The subsequent incubation/washing steps were carried out according to the protocol of the manufacturer. […] The extinction was measured using an ELISA plate reader and the values were then converted to concentrations using the standard samples which had also been measured.

C5a = experiment: ELISA of complement anaphylatoxin C5a in serum; assay type: biochemical, human
Protocol: as §1

[1] = test system: membrane attack complex (MAC, C5b-9); experiment: ELISA of lytic complex (MAC, C5b-9) in serum; assay type: biochemical, human; details: all dosis ranges studied (0.1-5% taurolidine); FIG. 7
Protocol: as §1

[2] = at 0.5% taurolidine (concentration maximum)

O=S1(=O)CCN(CN2CCS(=O)(=O)NC2)CN1 [taurolidine, 4,4′-methylenebis-(1,2,4-thiadiazine-1,1-dioxide)]
hemolytic activity (activity of the complement system) (complement system; human serum of healthy volunteers incubated with 0.1-1% taurolidine, 30 min, 37° C., FIGS. 1-3): significantly increases | complement activation (hemolytic activity), temperature dependence (complement system; incubation at 0-4° C., FIG. 2): not at 0-4 °C | C3a (C3a; at 0.1% taurolidine (minimum)): no or even a tendency of reduced | formation of C3a (C3a; [2]): enhances the formation | concentration of complement component C3a compared to untreated serum (C3a; serum with taurolidine 0.1-5%, 30 min, 37° C., FIG. 4): increased compared to untreated serum | C5a (C5a; at 0.1% taurolidine (minimum)): no or even a tendency of reduced | formation of C5a (C5a; [2]): enhances the formation | concentration of complement component C5a compared to untreated serum (C5a; serum with taurolidine 0.1-5%, 30 min, 37° C., FIGS. 5-6): increased compared to untreated serum | serum concentration of the membrane attack complex (MAC) [1]: elevated significantly
